These results are taken from US20230024537A1, “Oral Delivery Compositions for Obesity Management” (BOARD OF REGENTS, THE UNIVERSITY OF TEXAS SYSTEM, priority 2021, published 2023).

The nature of data set [1]: Beta glucan gel mediated oral delivery of nutraceuticals (absorption, pharmacokinetics). From the text:
Beta-glucan compositions can be used to delivery other nutrients or therapeutic molecule via oral delivery.

The next data set relates to high fat diet rat. Description: Rat animal model, high fat diet with CAGE-Leptin or BG-leptin treatment (body weight, food consumption). It counts as in vivo. As for the experimental part: Materials and Methods. Rat Animal Model. Rats are fed normal diet for 5 weeks, both male and female, body weight and food consumption is measured. Animals are fed a high fat diet for 5 weeks, body weight and food consumption is measured. Animals are fed high fat diet with CAGE-Leptin treatment for 5 weeks, body weight and food consumption is measured. Animals are fed high fat diet with BG-leptin treatment for 5 weeks, body weight and food consumption is measured.
Four groups of male were getting high fat diet for 2 weeks and then we start administer with cage, cage-leptin ab and leptin ab treatments (FIG. 3).

Data set [2] deals with high fat diet induced rat model. Kind of data set: Oral delivery of anti-leptin antibody or leptin protein in high fat diet induced rat model. In kind it is in vivo. As for the experimental part: The inventors have developed an oral antibody or protein delivery platform and investigated feasibility using an anti-leptin antibody. […] The oral delivery vehicle facilitated enhancement of intestinal penetration of the antibody as well as protect the antibody from being damaged within the stomach in presence of acidic gastric juice. […] An oral dose of 5-10 μg leptin protein resulted 10-20% body weight reduction compared to the untreated high fat diet rat. […] Treated groups show less cholesterol contents in their blood which is within the normal range in opposed to the untreated animal that are observed with high cholesterol content.

As to vitamin B12, the enhancement of pharmacokinetics in data set [1] (rat, in vivo, po) is 15-20 folds.
Regarding `O=C(O)CCCCC1CCSS1` (racemic) [DL-thioctic acid], the enhancement of pharmacokinetics in data set [1] (Beta glucan mediated oral delivery, compared with free oral delivery, thioctic acid tested in rat) is on record as 10-20 folds.
For the molecule `CC/C=C\C/C=C\C/C=C\C/C=C\C/C=C\C/C=C\CCC(=O)O` [Docosahexaenoic acid, docosahexaenoic acid], the enhancement of pharmacokinetics in data set [1] (rat, in vivo, po) came to 10 folds.
For `O=S(=O)([O-])[O-].[Fe+2]` [iron sulfate], in data set [1] (enhanced absorption by beta glucan), the “constipation problem associated with oral delivery” value is recorded as “mitigation of constipation problem”. The “absorption enhanced by Beta glucan” value in data set [1] (with Beta glucan, given orally) is given as 60%.
For “leptin protein: Leptin protein (GenBank NP-000221), protein hormone of approx. 16 kDa formed by 146 amino acids”, the “food consumption, male rat” value in the data set with high fat diet rat (male rats on high fat diet, versus high fat and regular diet control groups, FIG. 4 and FIG. 5) is “lower amount of food”. Also, in the data set with high fat diet rat (male rats, FIG. 2), the “body weight gain, male rat” value was “lower than regular and high fat diet male control group”. For the same molecule, in data set [2] (oral dose of 5-10 μg), the “body weight reduction compared to untreated high fat diet rat” value is 10-20%. Moreover, the “production of anti leptin antibody” value in data set [2] (oral leptin protein) is “results in production anti leptin antibody”. Moreover, the “fat content in body” value in data set [2] (treated high fat diet rat) is “significantly less fat content”.
